The values below come from patent publication US9953129B2, “Patient stratification and determining clinical outcome for cancer patients” (Agency for Science, Technology and Research, priority 2011, dated 2018).

Format in all cases: cell-based
The subject of experiment [1] is NBT-II cells. The experiment is described as follows: EMT spot migration assay, EGF induced EMT. The settings on record: for IC50: EMT induced by EGF (20 ng/mL), NBT-II cells, read-out: Cell Dispersion IC50 (nM) EGF. As for the experimental part: (§1) Stably transfected mcherry fluorescence-labeled NET-II cells are maintained in DMEM supplemented with 10% fetal bovine serum (FBS, Thermo Scientific), 1 μg/mL puromycin (Sigma), 100 units/mL penicillin−100 units/mL streptomycin (1×pen-strep, Invitrogen) and 2 mM L-glutamine (Invitrogen).
(§2) Test compounds were purchased from various vendors (Selleck Chemicals, Sigma Aldrich, SYN|thesis Med Chem, and Tocris Bioscience). For screening studies, test compounds at both 0.25 mM and 1.0 mM concentrations in DMSO are prepared, each occupying a single well in columns 2 to 11 of 96-well V-bottom plates (Greiner). For dose response studies, selected test compounds were prepared in duplicate wells and serial diluted in DMSO, starting a 1.0 mM concentration. Compound stock plates were stored at −20° C. and thawed at room temperature before use.
(§3) A schematic for the spot migration assay is illustrated in FIG. 2. Cells were grown up to 80% confluency in tissue culture flasks prior to cell plating. Cells were first trypsinized, concentrated and re-suspended to a density of 5×10^6 cell/mL in CO2 independent medium (Invitrogen) supplemented with 10% FBS. The cell suspension was then evenly aliquoted into the wells of 2 columns of a 96-well V-bottom plate. Using a robotic liquid handling station (Bravo, Agilent Technologies), 0.5 μL of cell suspension was transferred from the 2 columns of the cell suspension-loaded plate and deposited into the center of the wells of 2 columns of a 96-well clear bottom, black assay plate (Corning). This process was repeated six times so that all 96 wells of the assay plate were deposited with a cell suspension spot. The plate was then sealed to minimize evaporation of the cell suspension spots and transferred to a 37° C., 5% CO2 incubator to allow for cells to attach to the culture surface. After one hour, the plate was gently washed with medium once to remove unattached cells, refreshed with 100 μL assay medium (DMEM supplemented with 10% FBS, 1× pen-strep and 2 mM L-glutamine), and then further incubated to allow for cell-cell contacts to establish in the cell colonies.
Four tiled, non-overlapping images were acquired around the center of each well, which were then stitched together during image analysis to generate a montage covering an area of 3.2 mm×3.2 mm. These images (T1) represent the initial state of the cell colonies before EMT induction.
After the T1 images are acquired, 1 μL of test compounds were transferred from compound stock plates and added to the assay plates. […] The cultures were then further incubated overnight.
The next day, 50 μL of growth factor containing medium was added each well of the assay plates. For each of the EGF, HGF or IGF-1 induced EMT spot migration assays, the final growth factor concentrations was adjusted in each well to be 20 ng/mL EGF (Sigma), 4 ng/mL HGF (Calbiochem) or 150 ng/mL IGF-1 (R&D Systems), respectively. The cultures were then incubated for another 24 hours, to allow for EMT and sufficient cell motility/dispersion to occur in the cell colonies.
Finally, the cell colonies were imaged again using the confocal microplate imager as described above. These images (T2) represent the final state of the cell colonies after compound treatment and EMT induction. The acquired T1 and T2 image sets for each assay plate were then subjected to image analysis.
Acquired image sets were loaded into image analysis routine developed using Metamorph software. Briefly, a complete image of the entire cell colony in a well was first obtained by stitching the four tiled, non-overlapping images together. Image analysis consists of counting the cell number and measuring the area occupied by the cells. The positive nuclei were segmented using a wavelet decomposition scheme to remove the photonic noise and the inhomogeneous background. A watershed procedure was used to refine the result by separating the confluent nuclei.

The subject of a further experiment is OVCAR-2 cells. The experiment is described as follows: EMT reversal assay (morphology, Western blot) in OVCAR-2. The settings on record: OVCAR-2, 2 μM for 3 days. As for the experimental part:
(§4) SKOV3, HEY and OVCAR-2 cells were maintained in RPMI (Invitrogen) supplemented with 10% fetal bovine serum (FBS, Thermo Scientific), 1 μg/mL puromycin (Sigma), 100 units/mL penicillin−100 units/mL streptomycin (1× pen-strep, Invitrogen) and 2 mM L-glutamine (Invitrogen). AZD0530 and BIBF-1120 were purchased from Selleck Chemicals and SYN|thesis Med Chem respectively. DMSO was used as a vehicle to dissolve both compounds. A stock concentration of 10 mM was prepared for both compounds and stored at −20° C. and aliquots were thawed at room temperature before use. Cells were grown up to 80% confluency in tissue culture flasks prior to cell plating. Cells were first trypsinized, concentrated and re-suspended to a density of 1×10^6 cell/mL in RPMI supplemented with 10% FBS. For each cell lines, 1×10^5 cells were plated onto 100 mm cell culture treated dishes (Nunc) for each condition. The cells were then allowed to attach to the culture dish surface and grow overnight in 37° C., 5% CO2 incubator. In drug conditions, the cells were then incubated with each of the compounds at a final concentration of 2 μM for 3 days to allow cell-cell contacts to establish in the dispersed culture. The medium was aspirated from the culture dishes and the cells were washed with PBS Ca^2+, Mg^2+ before they were snap-frozen with liquid nitrogen. Cells were lysed with RIPA buffer (Sigma) supplemented with protease inhibitor cocktail (Calbiochem) and phosphatase inhibitor cocktail (Roche). Protein concentration was measured using BCA (Pierce) protocol provided by the manufacturer. 8% polyacrylamide gels were used for the separation of proteins and transferred to PDVF membranes (Millipore). Membranes were blocked in 5% non-fat milk (Bio-rad) and incubated at 4 degree Celsius overnight with primary antibodies. E-cadherin antibody was purchased from BD laboratories, MMP13 antibody was purchased from Millipore and Tubulin was purchased from Sigma. […] The raw intensity of the protein bands were quantified using GeneTools software (Syngene).

The subject of another experiment is SKOV3 cells. As to the kind of experiment: EMT reversal assay (morphology, Western blot) in SKOV3. The following applies: SKOV3, 2 μM for 3 days. As for the experimental part: as §4
The test system of experiment [2] is NBT-II cells. As to the kind of experiment: EMT spot migration assay, HGF induced EMT. The settings on record: EMT induced by HGF (4 ng/mL), read-out: Cell Dispersion IC50 (nM) HGF. As for the experimental part:
as §1, §2, §3
After 4 hours of incubation, the cell colonies for each well were imaged using a confocal microplate imager (MetaXpress Ultra, Molecular Devices) with 10× Plan Fluor objective, 561 nm laser excitation and 593/40 nm emission filter configuration. Four tiled, non-overlapping images were acquired around the center of each well, which were then stitched together during image analysis to generate a montage covering an area of 3.2 mm×3.2 mm. These images (T1) represent the initial state of the cell colonies before EMT induction.
After the T1 images are acquired, 1 μL of test compounds were transferred from compound stock plates and added to the assay plates. […]

A further experiment deals with HEY cells. As to the kind of experiment: EMT reversal assay (morphology, Western blot) in HEY. The settings on record: 2 μM for 3 days. As for the experimental part:
as §4
In general terms: In western blotting, separated proteins are transferred to a membrane and probed.

Experiment [3] concerns NBT-II cells. The experiment is described as follows: EMT spot migration assay, IGF-1 induced EMT. The settings on record: EMT induced by IGF-1 (150 ng/mL), read-out: Cell Dispersion IC50 (nM) IGF-1. As for the experimental part: as §1, §2
as §3, with “After one hour, the plate was gently washed with medium once to remove unattached cells, refreshed with 100 μL assay medium (DMEM supplemented with 10% FBS, 1× pen-strep and 2 mM L-glutamine), and then further incubated to allow for cell-cell contacts to establish in the cell colonies.” left out

The IC50 is the concentration that gives 50% inhibition.

Turning to `COc1cc2ncnc(Nc3cccc(Cl)c3)c2cc1OC` [AG 1478], the IC50 in the experiment with NBT-II cells [1] is 350 nM. For the same molecule, the “Cell Dispersion ratio” value in the experiment on NBT-II cells [1] (PosCtrl condition: [AG1478]=6.67 microM and [EGF]=20 ng/mL, NegCtrl 2.50±0.12) is 1.48±0.05.
On to `CN1CCN(CCOc2cc(OC3CCOCC3)c3c(Nc4c(Cl)ccc5c4OCO5)ncnc3c2)CC1` [AZD 0530], for which the Morphology after treatment result is “formed tighter cobblestone-like cell colonies” in the experiment with OVCAR-2 cells (vs DMSO), “restored the epithelioid-like morphology” in the experiment with SKOV3 cells (vs DMSO) and “restored the epithelioid-like morphology” with HEY cells (vs DMSO). The “E-cadherin protein levels (Western blot)” value is on record as “increased” in the experiment on OVCAR-2 cells (vs vehicle), “greater increase” in the experiment with SKOV3 cells (vs vehicle) and “greater increase” in the experiment with HEY cells (vs vehicle). In addition, the “MMP13 protein levels (Western blot)” value is “reduced” with OVCAR-2 cells (vs vehicle), “greater reduction” with SKOV3 cells (vs vehicle) and “greater reduction” in the experiment with HEY cells (vs vehicle). Further, the concentration for half-maximal inhibition (IC50) came to 650 nM in the experiment on NBT-II cells [2] and 565 nM in the experiment on NBT-II cells [1].
Turning to `Cn1cnc2c(F)c(Nc3ccc(Br)cc3Cl)c(C(=O)NOCCO)cc21` [AZD 6244], the concentration for half-maximal inhibition (IC50) stood at 534 nM in the experiment with NBT-II cells [3] and 471 nM in the experiment with NBT-II cells [2].
Regarding `Cc1cc(N2CCOCC2)cc2[nH]c(-c3c(NC[C@@H](O)c4cccc(Cl)c4)cc[nH]c3=O)nc12` [BMS 536924], the 50% inhibitory concentration (IC50) in the experiment with NBT-II cells [1] turned out to be 6600 nM.
For the molecule `CS(=O)(=O)N1CCN(Cc2cc3nc(-c4cccc5[nH]ncc45)nc(N4CCOCC4)c3s2)CC1` [GDC-0941], the half-inhibitory concentration (IC50) in the experiment on NBT-II cells [3] is 490 nM.
As to `Cn1cc(-c2ccc3nnc(C(F)(F)c4ccc5ncccc5c4)n3n2)cn1` [JNJ.38877605], the 50% inhibitory concentration (IC50) in the experiment with NBT-II cells [2] is 43 nM.
Turning to `S=C(NCc1ccc2c(c1)OCO2)N1CCN(c2ncnc3c2oc2ccccc23)CC1` [MP-470], the concentration for half-maximal inhibition (IC50) with NBT-II cells [3] is 580 nM; in the experiment on NBT-II cells [2] it was 970 nM; in the experiment on NBT-II cells [1], 510 nM.
As for `Cc1ccc(-c2nn(C(C)(C)C)c3ncnc(N)c23)cc1` [PP 1], in the experiment on NBT-II cells [1], the concentration for half-maximal inhibition (IC50) is 1720 nM.
Still for that read-out and setting: the value for `COc1cc2ncnc(Nc3ccc(O)c(Br)c3)c2cc1OC` [WHI-P 154] was 590 nM.
